The values that follow come from ChEMBL document CHEMBL5365461, “Degradation of Cyclin-Dependent Kinase 9/Cyclin T1 by Optimized Microtubule-Associated Protein 1 Light Chain 3 Beta-Recruiting Coumarin Analogs” (J Med Chem, 2023).

pIC50: −log10 of the molar value. Active and inactive are the calls of the source. The calls are words filed in the database; no cut-off is given here.

The target in assay [1] is Cyclin-dependent kinase 9 (Homo sapiens) (UniProt P50750). Nature of the assay: Inhibition of GST-fused human full-length CDK9 (1 to 372(end) residues)/N-terminal GST-fused His-tagged human full-length CyclinT1 (1 to 726(end) residues) expressed in baculovirus expression system at 100 nM using CDK7/9 tide as substrate incubated for 120 mins in presence of ATP by ADP-Glo Kinase assay relative to control.

Assay [2] has the same target. The assay is described as follows: Inhibition of GST-fused human full-length CDK9 (1 to 372(end) residues)/N-terminal GST-fused His-tagged human full-length CyclinT1 (1 to 726(end) residues) expressed in baculovirus expression system at 10 nM using CDK7/9 tide as substrate incubated for 120 mins in presence of ATP by ADP-Glo Kinase assay relative to control.
The subject of assay [3] is U2932. Nature of the assay: Cytotoxicity against human U2932 cells assessed as inhibition of cell growth measured after 72 hrs by CCK-8 assay. The class given is functional, cell-based. To be noted: U2932, 72 h. (In general: Tetrazolium dyes change colour on reduction, which living cells bring about.)
Assay [4] deals with CDK9/cyclin T1 (Homo sapiens) (UniProt O60563+P50750). Nature of the assay: Induction of CDK9/CyclinT1 degradation in human U2932 cells at 100 nM measured after 24 hrs by immunoblotting analysis. The class given is cell-based. For orientation: In western blotting, separated proteins are transferred to a membrane and probed.
Assay [5] concerns U2932. Nature of the assay: Induction of apoptosis in human U2932 cells assessed as necrotic cells at 1000 nM incubated for 24 hrs by AnnexinV-FITC/PI staining based flow cytometry analysis (reference value: 0.92%). The class given is functional. Background: In flow cytometry, cells or beads pass a laser one at a time.
Assay [6] concerns U2932. The assay is described as follows: Induction of apoptosis in human U2932 cells assessed as early apoptotic cells at 1000 nM incubated for 24 hrs by AnnexinV-FITC/PI staining based flow cytometry analysis (reference value: 6.20%). The class given is functional.
In assay [7] the test system is U2932. Nature of the assay: Induction of apoptosis in human U2932 cells assessed as viable cells at 1000 nM incubated for 24 hrs by AnnexinV-FITC/PI staining based flow cytometry analysis (reference value: 86.9%). The class given is functional. The following applies: read-out: Activity.
The test system of assay [8] is U2932. The assay is described as follows: Induction of apoptosis in human U2932 cells assessed as late apoptotic cells at 1000 nM incubated for 24 hrs by AnnexinV-FITC/PI staining based flow cytometry analysis (reference value: 5.95%). The format is functional.

Sequence of Cyclin-dependent kinase 9 (Homo sapiens) (P50750 whole entry, the tested form may be a part): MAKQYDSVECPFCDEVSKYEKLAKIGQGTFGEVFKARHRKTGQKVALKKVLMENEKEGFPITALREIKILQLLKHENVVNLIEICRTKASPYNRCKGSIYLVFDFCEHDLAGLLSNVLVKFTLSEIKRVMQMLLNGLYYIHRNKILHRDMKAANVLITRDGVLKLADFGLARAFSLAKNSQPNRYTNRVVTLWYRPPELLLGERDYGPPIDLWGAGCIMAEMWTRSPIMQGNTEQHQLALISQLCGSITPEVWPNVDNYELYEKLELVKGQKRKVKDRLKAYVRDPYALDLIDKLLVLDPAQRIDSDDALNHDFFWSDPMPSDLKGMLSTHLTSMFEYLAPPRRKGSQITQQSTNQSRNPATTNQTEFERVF

Broadly, the inhibition is the drop in the measured response relative to a control, in per cent. As usually defined, the pIC50 is the negative decadic logarithm of the IC50, by convention in mol/L. Consider `Cc1cc(=O)oc2cc(O)cc(OCCCCN3CCC(C(=O)Nc4ncc(SCc5ncc(C(C)(C)C)o5)s4)CC3)c12`, for which the inhibition stood at 79% in assay [1] and 9% in assay [2]. Also, the pIC50 in the assay with U2932 [3] is 6.85.
Regarding `CC(C)(C)c1cnc(CSc2cnc(NC(=O)C3CCN(CCCOc4cc(O)c5c(-c6ccccc6)cc(=O)oc5c4)CC3)s2)o1`, the result in assay [4] was Active. In addition, the inhibition in assay [1] was 86%; in assay [2], -4%. In the assay with U2932 [3], the pIC50 is 6.92.
In the case of `CC(C)(C)c1cnc(CSc2cnc(NC(=O)C3CCN(CCCOc4cccc5oc(=O)cc(-c6ccccc6)c45)CC3)s2)o1`, the inhibition in assay [1] was 36%; in assay [2], -8%. In the assay with U2932 [3], the pIC50 is 6.27.
The matching figures for `Cc1cc(=O)oc2cc(OCCCCCN3CCC(C(=O)Nc4ncc(SCc5ncc(C(C)(C)C)o5)s4)CC3)cc(O)c12`: 57%, 2% and 7.01.
The matching figures for `CC(C)(C)c1cnc(CSc2cnc(NC(=O)C3CCN(CCCCCOc4cc(O)cc5oc(=O)ccc45)CC3)s2)o1`: 83%, 24% and 6.96.
Consider `CC(C)(C)c1cnc(CSc2cnc(NC(=O)C3CCN(CC(=O)NCCOCCOCCOCCNc4cccc5c4C(=O)N(C4CCC(=O)NC4=O)C5=O)CC3)s2)o1` (centres undefined), for which the Activity stood at 1.55% with U2932 [5], 8.93% in the assay on U2932 [6] and 22.3% with U2932 [8]. Moreover, in assay [4], the result was Active. Moreover, the viability at 1 µM in the assay with U2932 [7] came out at 67.2%. Further, the figures for the inhibition in assay [1] and in assay [2] were 39% and 4%, respectively. Besides, the negative-log IC50 (pIC50) in the assay with U2932 [3] is 6.51.
For `CC(C)(C)c1cnc(CSc2cnc(NC(=O)C3CCN(CCCOc4cc(O)cc5oc(=O)cc(-c6ccc(F)cc6)c45)CC3)s2)o1`, the inhibition in assay [1] was 68%. In addition, the pIC50 in the assay on U2932 [3] was 6.46.
As to `CC(C)(C)c1cnc(CSc2cnc(NC(=O)C3CCN(CCCOc4cc(O)c5c(-c6ccc(F)cc6)cc(=O)oc5c4)CC3)s2)o1`, the outcome in assay [4] was Active. In assay [1], the inhibition was 80%. Besides, the pIC50 in the assay with U2932 [3] is 6.91.
In the case of `Cc1cc(=O)oc2cc(OCCOCCN3CCC(C(=O)Nc4ncc(SCc5ncc(C(C)(C)C)o5)s4)CC3)cc(O)c12`, the inhibition in assay [1] came out at 71%; in assay [2], 28%. Moreover, the pIC50 in the assay with U2932 [3] was 6.84.
Consider `CC(C)(C)c1cnc(CSc2cnc(NC(=O)C3CCN(CCCOc4cc(O)cc5oc(=O)ccc45)CC3)s2)o1`, for which, in assay [4], the result was Active. Also, the inhibition in assay [1] is 52%; in assay [2], -3%. For the same molecule, in the assay on U2932 [3], the pIC50 was 6.90.
For the molecule `Cc1cc(=O)oc2cc(OCCCCN3CCC(C(=O)Nc4ncc(SCc5ncc(C(C)(C)C)o5)s4)CC3)cc(O)c12`, the inhibition came out at 73% in assay [1] and 26% in assay [2]. Moreover, the pIC50 in the assay with U2932 [3] was 6.88.
`CC(C)(C)c1cnc(CSc2cnc(NC(=O)C3CCN(CCCOc4cc(O)cc5oc(=O)cc(-c6ccccc6)c45)CC3)s2)o1`: the inhibition was 51% in assay [1] and -8% in assay [2]. Also, the pIC50 in the assay with U2932 [3] is 6.20.
As to `CC(C)(C)c1cnc(CSc2cnc(NC(=O)C3CCN(CCCOc4cc(O)c5c(-c6ccncc6)cc(=O)oc5c4)CC3)s2)o1`, the outcome in assay [4] was Active. Further, the inhibition in assay [1] stood at 69%; in assay [2], 15%. For the same molecule, in the assay with U2932 [3], the pIC50 is 6.72.
Regarding `Cc1cc(=O)oc2cc(O)cc(OCCOCCN3CCC(C(=O)Nc4ncc(SCc5ncc(C(C)(C)C)o5)s4)CC3)c12`, the inhibition in assay [1] is 63%; in assay [2], 5%. Moreover, the pIC50 in the assay with U2932 [3] was 6.74.
The matching figures for `COc1ccc(-c2cc(=O)oc3cc(O)cc(OCCCN4CCC(C(=O)Nc5ncc(SCc6ncc(C(C)(C)C)o6)s5)CC4)c23)cc1`: 61%, -5% and 6.22.
The matching figures for `Cc1cc(=O)oc2cc(OCCN3CCC(C(=O)Nc4ncc(SCc5ncc(C(C)(C)C)o5)s4)CC3)cc(O)c12`: 69%, 37% and 6.81.
For `CC(C)(C)c1cnc(CSc2cnc(NC(=O)C3CCN(CCCOc4cc(O)cc5oc(=O)cc(-c6ccncc6)c45)CC3)s2)o1`, the inhibition in assay [1] is 55%. For the same molecule, in the assay on U2932 [3], the pIC50 was 6.32.
For `COc1ccc(-c2cc(=O)oc3cc(OCCCN4CCC(C(=O)Nc5ncc(SCc6ncc(C(C)(C)C)o6)s5)CC4)cc(O)c23)cc1`, in assay [4], the outcome was Active. The figures for the inhibition in assay [1] and in assay [2] were 83% and 33%, respectively. Also, the pIC50 in the assay with U2932 [3] was 6.98.
As to `Cc1cc(=O)oc2cc(O)cc(OCCN3CCC(C(=O)Nc4ncc(SCc5ncc(C(C)(C)C)o5)s4)CC3)c12`, the inhibition in assay [1] was determined as 73%; in assay [2], 23%. For the same molecule, the pIC50 in the assay on U2932 [3] was 6.37.
Consider `CC(C)(C)c1cnc(CSc2cnc(NC(=O)C3CCN(CCCOc4cc(O)c5ccc(=O)oc5c4)CC3)s2)o1`, for which the result in assay [4] was Active. Moreover, the inhibition in assay [1] turned out to be 78%; in assay [2] it was 45%. The negative logarithm of the IC50 (pIC50) in the assay with U2932 [3] was 6.80.
With `Cc1cc(=O)oc2cc(O)cc(OCCCN3CCC(C(=O)Nc4ncc(SCc5ncc(C(C)(C)C)o5)s4)CC3)c12`, in assay [4], the outcome was Active. Further, in assay [1], the inhibition was found to be 55%. The pIC50 in the assay on U2932 [3] was 6.80.
With `CC(C)(C)c1cnc(CSc2cnc(NC(=O)C3CCN(CCCOc4ccc5c(-c6ccccc6)cc(=O)oc5c4)CC3)s2)o1`, the inhibition in assay [1] worked out at 69%; in assay [2], 6%. The pIC50 with U2932 [3] is 6.49.
